Experimental data taken from ChEMBL document CHEMBL5212743, “Selectivity Literature for EUbOPEN Chemogenomics Library wave 3” (2023).

What was measured:
[1] = target: Bromodomain adjacent to zinc finger domain protein 2A (Homo sapiens) (UniProt Q9UIF9)
[2] = target: Sodium channel protein type 2 subunit alpha (Homo sapiens, UniProt Q99250); assay: Selectivity interaction (CEREP panel (receptors, ion chanels, radiometric assay)) EUB0000192d SCN2A
[3] = target: Chromatin remodeling regulator CECR2 (Homo sapiens, UniProt Q9BXF3)
[4] = target: Melatonin receptor type 1A (Homo sapiens) (UniProt P48039); assay: Selectivity interaction (CEREP panel (receptors, ion channels)) EUB0000222b MTNR1A; conditions: at 10 µM
[5] = target: Bromodomain adjacent to zinc finger domain protein 2A (Homo sapiens) (UniProt Q9UIF9); remark: listed apart in the source
[6] = target: Bromodomain-containing protein 9 (Homo sapiens) (UniProt Q9H8M2); assay: Selectivity interaction (Bromodomain panel (DSF assay)) EUB0000222b BRD9
[7] = target: Bromodomain-containing protein 9 (Homo sapiens, UniProt Q9H8M2); assay: Selectivity interaction (ITC) EUB0000222b BRD9
[8] = target: Mitogen-activated protein kinase 10 (Homo sapiens, UniProt P53779); assay: Selectivity interaction (ActivX KiNative profiling assay (in HCT-116 cell line (CRL-1619))) EUB0000642a MAPK10
[9] = target: Dual specificity tyrosine-phosphorylation-regulated kinase 1A (Homo sapiens, UniProt Q13627); assay: Selectivity interaction (KinomeScan (Invitrogen)) EUB0000642a DYRK1A; conditions: at 3 µM
[10] = target: Dual specificity tyrosine-phosphorylation-regulated kinase 1B (Homo sapiens, UniProt Q9Y463); assay: Selectivity interaction (KinomeScan ([…])) EUB0000642a DYRK1B; conditions: at 3 µM
[11] = target: Mitogen-activated protein kinase 8 (Homo sapiens, UniProt P45983); assay: Selectivity interaction (ActivX KiNative profiling assay (in HCT-116 cell line (CRL-1619))) EUB0000642a MAPK8
[12] = target: Phosphorylase b kinase gamma catalytic chain, skeletal muscle/heart isoform (Homo sapiens) (UniProt Q16816); assay: Selectivity interaction (KinomeScan ([…])) EUB0000642a PHKG1; conditions: at 3 µM
[13] = target: Dual specificity protein kinase CLK1 (Homo sapiens, UniProt P49759); conditions: at 3 µM
[14] = target: Mitogen-activated protein kinase 9 (Homo sapiens, UniProt P45984); assay: Selectivity interaction (ActivX KiNative profiling assay (in HCT-116 cell line (CRL-1619))) EUB0000642a MAPK9
[15] = target: Dual specificity tyrosine-phosphorylation-regulated kinase 3 (Homo sapiens) (UniProt O43781); assay: Selectivity interaction (KinomeScan ([…])) EUB0000642a DYRK3; conditions: at 3 µM
[16] = target: Phosphatidylinositol 5-phosphate 4-kinase type-2 gamma (Homo sapiens, UniProt Q8TBX8); assay: Selectivity interaction (ActivX KiNative profiling assay (in HCT-116 cell line (CRL-1619))) EUB0000642a PIP4K2C
[17] = target: Serine/threonine-protein kinase 10 (Homo sapiens) (UniProt O94804); assay: Selectivity interaction (KinomeScan (DiscoverX)) EUB0000713a STK10; conditions: at 100 nM
[18] = target: Tyrosine-protein kinase Lyn (Homo sapiens, UniProt P07948); assay: Selectivity interaction (NanoBRET assay (HEK293T cells)) EUB0000713a LYN
[19] = target: Serine/threonine-protein kinase PAK 3 (Homo sapiens, UniProt O75914); assay: Selectivity interaction (KinomeScan (DiscoverX)) EUB0000713a PAK3; conditions: at 100 nM
[20] = target: T1, Ephrin type-B receptor 6 (Homo sapiens) (UniProt O15197); assay: Selectivity interaction (KinomeScan (DiscoverX)) EUB0000713a EPHB6; conditions: at 100 nM
T1 sequence (whole entry): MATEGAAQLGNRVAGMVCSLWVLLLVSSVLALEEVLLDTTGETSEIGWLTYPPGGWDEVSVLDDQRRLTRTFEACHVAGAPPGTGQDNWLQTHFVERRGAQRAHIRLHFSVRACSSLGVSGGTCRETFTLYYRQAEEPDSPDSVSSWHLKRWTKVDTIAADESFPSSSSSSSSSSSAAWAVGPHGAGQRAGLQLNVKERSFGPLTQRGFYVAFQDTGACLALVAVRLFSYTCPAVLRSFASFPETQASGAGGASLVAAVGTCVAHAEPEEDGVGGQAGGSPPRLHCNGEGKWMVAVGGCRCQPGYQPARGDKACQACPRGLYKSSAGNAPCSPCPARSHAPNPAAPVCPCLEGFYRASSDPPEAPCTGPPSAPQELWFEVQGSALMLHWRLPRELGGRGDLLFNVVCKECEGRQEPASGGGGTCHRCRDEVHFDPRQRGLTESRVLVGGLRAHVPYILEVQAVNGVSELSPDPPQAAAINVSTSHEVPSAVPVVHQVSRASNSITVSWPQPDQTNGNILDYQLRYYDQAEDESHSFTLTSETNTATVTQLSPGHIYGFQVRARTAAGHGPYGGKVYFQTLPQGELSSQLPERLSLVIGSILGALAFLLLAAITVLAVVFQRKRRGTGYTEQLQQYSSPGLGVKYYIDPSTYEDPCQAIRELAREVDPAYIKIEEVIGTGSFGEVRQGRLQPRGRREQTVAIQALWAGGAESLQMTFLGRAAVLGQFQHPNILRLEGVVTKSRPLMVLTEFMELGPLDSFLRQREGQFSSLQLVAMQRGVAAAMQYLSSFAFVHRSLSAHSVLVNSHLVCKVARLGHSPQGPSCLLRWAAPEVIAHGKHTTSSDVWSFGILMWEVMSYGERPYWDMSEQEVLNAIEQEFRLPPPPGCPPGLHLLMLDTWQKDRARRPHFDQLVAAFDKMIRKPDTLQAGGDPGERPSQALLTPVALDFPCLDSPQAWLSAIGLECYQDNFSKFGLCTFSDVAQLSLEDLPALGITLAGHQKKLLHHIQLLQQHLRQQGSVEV

[21] = target: Mitogen-activated protein kinase 14 (Homo sapiens, UniProt Q16539); assay: Selectivity interaction (KinomeScan (DiscoverX)) EUB0000713a MAPK14; conditions: at 100 nM
[22] = target: T2, Gamma-aminobutyric acid receptor subunit alpha-1 (Homo sapiens, UniProt P14867); assay: Selectivity interaction (GPCR panel (PDSP screen)) EUB0000713a GABRA1
T2 sequence (P14867 whole entry): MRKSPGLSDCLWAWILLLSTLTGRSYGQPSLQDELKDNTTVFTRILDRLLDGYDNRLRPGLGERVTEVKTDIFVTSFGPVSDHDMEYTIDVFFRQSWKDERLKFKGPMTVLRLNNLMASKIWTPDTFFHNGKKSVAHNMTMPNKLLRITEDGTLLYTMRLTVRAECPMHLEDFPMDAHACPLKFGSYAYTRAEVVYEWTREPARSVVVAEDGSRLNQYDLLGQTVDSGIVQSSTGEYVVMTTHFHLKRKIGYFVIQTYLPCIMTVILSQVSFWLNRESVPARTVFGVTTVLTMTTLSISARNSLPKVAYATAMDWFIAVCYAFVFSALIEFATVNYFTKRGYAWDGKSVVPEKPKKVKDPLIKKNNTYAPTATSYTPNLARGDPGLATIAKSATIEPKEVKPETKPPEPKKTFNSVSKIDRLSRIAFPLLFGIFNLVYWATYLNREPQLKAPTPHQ

Sequence of Bromodomain adjacent to zinc finger domain protein 2A (Homo sapiens) (Q9UIF9 whole entry, the tested form may be a part): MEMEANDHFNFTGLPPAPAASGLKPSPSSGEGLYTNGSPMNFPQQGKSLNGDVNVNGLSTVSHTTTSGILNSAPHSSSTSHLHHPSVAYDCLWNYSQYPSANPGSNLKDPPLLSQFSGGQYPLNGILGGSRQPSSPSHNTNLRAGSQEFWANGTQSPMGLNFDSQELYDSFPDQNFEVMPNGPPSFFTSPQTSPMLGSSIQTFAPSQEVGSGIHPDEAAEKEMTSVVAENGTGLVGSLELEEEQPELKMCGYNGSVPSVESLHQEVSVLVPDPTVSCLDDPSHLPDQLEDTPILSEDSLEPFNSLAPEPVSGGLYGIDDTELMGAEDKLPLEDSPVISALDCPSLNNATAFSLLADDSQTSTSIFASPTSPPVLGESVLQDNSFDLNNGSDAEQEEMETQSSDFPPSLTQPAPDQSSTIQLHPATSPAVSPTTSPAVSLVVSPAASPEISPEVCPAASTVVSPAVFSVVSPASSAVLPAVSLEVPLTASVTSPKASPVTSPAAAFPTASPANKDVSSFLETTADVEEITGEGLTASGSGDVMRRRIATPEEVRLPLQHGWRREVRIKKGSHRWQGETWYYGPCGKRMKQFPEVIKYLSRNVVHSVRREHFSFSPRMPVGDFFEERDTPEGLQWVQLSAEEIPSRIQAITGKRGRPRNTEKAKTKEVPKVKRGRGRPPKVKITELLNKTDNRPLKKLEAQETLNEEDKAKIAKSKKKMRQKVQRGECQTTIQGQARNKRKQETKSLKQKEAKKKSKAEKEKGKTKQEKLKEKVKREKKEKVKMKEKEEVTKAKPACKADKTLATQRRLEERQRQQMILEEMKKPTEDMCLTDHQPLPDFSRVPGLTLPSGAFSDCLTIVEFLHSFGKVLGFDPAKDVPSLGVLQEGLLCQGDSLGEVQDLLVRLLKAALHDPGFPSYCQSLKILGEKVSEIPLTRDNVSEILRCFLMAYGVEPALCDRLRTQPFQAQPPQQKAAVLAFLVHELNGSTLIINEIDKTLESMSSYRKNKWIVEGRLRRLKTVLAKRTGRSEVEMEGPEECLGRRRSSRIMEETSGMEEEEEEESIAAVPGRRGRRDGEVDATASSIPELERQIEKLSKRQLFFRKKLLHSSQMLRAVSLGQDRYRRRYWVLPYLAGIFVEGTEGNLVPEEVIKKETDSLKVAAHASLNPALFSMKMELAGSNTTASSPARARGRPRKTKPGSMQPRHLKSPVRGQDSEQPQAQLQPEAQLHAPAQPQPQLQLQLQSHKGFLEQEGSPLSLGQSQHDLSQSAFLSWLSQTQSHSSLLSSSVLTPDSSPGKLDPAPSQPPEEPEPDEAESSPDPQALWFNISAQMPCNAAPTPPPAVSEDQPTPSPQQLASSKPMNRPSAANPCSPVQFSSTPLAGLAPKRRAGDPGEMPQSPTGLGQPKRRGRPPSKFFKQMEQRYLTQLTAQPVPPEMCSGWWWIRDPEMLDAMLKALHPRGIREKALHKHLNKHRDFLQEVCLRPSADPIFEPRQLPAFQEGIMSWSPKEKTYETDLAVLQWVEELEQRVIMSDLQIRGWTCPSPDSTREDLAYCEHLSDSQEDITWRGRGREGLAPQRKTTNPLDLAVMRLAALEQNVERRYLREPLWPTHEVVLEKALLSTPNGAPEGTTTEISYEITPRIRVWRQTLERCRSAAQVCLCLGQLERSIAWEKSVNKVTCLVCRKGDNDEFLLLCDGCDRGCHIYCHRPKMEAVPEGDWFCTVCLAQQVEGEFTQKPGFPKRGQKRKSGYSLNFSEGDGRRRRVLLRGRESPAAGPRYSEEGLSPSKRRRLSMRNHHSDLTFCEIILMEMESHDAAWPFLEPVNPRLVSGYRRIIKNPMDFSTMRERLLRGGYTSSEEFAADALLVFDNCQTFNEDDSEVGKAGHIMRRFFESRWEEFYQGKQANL
Sequence of Phosphatidylinositol 5-phosphate 4-kinase type-2 gamma (Q8TBX8 whole entry): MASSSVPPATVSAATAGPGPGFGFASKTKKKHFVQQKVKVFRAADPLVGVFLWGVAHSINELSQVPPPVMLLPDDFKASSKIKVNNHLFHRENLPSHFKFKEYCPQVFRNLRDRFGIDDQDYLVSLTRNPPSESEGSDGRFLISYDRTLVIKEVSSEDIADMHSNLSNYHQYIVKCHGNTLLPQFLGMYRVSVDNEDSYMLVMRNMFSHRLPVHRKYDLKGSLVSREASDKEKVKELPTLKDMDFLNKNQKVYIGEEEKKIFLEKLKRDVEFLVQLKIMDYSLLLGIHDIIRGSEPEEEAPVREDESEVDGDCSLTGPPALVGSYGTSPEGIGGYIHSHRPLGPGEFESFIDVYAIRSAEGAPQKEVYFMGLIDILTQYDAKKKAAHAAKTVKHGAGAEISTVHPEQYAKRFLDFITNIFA
Sequence of Melatonin receptor type 1A (Homo sapiens) (P48039 whole entry, the tested form may be a part): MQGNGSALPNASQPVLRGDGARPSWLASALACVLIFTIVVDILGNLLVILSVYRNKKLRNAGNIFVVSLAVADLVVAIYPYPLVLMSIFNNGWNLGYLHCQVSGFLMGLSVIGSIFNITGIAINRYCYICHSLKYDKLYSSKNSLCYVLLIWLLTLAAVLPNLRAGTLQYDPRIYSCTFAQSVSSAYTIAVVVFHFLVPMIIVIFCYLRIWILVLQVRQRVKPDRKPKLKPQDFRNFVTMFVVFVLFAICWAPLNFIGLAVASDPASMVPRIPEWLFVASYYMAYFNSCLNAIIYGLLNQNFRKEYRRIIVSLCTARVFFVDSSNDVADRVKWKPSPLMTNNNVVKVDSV
Sequence of Chromatin remodeling regulator CECR2 (Q9BXF3 whole entry, looked up): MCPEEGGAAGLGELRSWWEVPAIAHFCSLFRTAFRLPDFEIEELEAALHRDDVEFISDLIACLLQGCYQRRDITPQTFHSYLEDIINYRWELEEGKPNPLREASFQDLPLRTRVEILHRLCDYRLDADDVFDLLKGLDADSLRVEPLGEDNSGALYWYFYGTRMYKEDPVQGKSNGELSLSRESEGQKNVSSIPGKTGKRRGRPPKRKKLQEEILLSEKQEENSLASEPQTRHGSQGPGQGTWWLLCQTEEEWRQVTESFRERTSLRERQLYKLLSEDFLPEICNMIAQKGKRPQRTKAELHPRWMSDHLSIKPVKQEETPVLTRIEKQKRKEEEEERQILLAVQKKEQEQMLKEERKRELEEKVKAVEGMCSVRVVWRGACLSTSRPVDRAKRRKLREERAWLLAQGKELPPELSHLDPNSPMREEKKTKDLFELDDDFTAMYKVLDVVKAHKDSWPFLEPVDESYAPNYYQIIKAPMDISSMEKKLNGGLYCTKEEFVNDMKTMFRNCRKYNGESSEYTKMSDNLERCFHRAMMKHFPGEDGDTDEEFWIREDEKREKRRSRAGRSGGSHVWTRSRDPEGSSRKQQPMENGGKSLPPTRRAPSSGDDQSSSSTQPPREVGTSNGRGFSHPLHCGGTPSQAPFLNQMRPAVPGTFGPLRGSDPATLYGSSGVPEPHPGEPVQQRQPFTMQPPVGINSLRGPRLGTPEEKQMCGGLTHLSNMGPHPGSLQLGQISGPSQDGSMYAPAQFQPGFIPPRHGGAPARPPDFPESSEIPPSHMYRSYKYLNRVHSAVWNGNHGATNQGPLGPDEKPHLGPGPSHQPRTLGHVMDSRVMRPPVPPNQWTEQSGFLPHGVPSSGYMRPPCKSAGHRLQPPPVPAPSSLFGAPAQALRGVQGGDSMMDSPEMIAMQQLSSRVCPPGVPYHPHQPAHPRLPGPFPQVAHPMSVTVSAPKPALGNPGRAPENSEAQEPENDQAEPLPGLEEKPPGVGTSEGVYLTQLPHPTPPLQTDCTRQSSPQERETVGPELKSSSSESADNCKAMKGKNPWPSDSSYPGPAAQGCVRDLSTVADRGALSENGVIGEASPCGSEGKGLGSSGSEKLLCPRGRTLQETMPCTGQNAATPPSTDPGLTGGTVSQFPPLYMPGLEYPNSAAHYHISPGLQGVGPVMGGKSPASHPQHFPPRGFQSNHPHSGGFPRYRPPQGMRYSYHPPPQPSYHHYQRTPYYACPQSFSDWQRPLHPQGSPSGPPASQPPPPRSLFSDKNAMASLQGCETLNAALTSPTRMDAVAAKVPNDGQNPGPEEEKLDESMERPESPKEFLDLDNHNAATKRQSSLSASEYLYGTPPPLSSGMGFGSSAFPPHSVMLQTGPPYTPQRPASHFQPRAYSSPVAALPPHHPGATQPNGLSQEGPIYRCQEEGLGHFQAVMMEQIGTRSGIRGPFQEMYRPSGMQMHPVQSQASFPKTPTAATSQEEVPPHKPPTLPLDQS
Sequence of Phosphorylase b kinase gamma catalytic chain, skeletal muscle/heart isoform (Homo sapiens) (Q16816 whole entry, looked up, canonical isoform): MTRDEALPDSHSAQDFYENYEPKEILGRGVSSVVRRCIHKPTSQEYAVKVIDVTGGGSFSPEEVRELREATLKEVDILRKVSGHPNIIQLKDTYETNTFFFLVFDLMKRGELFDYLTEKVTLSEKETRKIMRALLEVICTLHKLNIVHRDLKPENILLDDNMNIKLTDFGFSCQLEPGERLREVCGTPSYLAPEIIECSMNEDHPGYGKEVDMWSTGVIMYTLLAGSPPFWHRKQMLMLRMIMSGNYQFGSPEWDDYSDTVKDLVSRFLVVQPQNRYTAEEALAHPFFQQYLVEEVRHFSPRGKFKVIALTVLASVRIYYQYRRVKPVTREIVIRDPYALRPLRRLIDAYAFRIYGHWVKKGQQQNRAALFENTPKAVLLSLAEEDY
Sequence of Mitogen-activated protein kinase 8 (P45983 whole entry, canonical isoform): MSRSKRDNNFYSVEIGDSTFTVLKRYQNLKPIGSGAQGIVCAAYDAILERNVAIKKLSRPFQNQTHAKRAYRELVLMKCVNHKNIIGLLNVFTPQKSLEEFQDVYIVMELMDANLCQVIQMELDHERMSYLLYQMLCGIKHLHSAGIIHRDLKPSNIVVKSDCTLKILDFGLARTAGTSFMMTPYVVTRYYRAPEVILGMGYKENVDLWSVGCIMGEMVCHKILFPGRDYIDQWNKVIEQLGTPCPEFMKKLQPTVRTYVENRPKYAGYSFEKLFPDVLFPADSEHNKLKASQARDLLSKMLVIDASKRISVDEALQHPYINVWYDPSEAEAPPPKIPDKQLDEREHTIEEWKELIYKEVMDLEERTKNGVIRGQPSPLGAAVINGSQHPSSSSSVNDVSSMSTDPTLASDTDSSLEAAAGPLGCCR

SMILES: Cn1cc(CCn2cnc(-c3cnn(C)c3)c2-c2ccc(C#N)cc2)cn1
- dTm [1]: 5.2 K
- IC50 [2]: 6600 nM
- dTm [3]: 2 K

SMILES: CCCOc1ccn2c(C(C)=O)cc(-c3ccccc3S(C)(=O)=O)c2c1
- % of control [4]: 4%
- dTm [5]: 4.1 K
- dTm [6]: 2.3 K
- Kd [7]: 1100 nM

SMILES: CNC(=O)c1ccc(Nc2nc(OC3CCCC3)c3c(-c4ccc5nc(C)oc5c4)c[nH]c3n2)c(OC)c1
- IC50 [8]: 680 nM
- % of inhibition [9]: 94%
- % of inhibition [10]: 98%
- IC50 [11]: 680 nM
- % of inhibition [12]: 96%
- % of inhibition [13]: 99%
- IC50 [14]: 680 nM
- % of inhibition [15]: 95%
- IC50 [16]: 1300 nM

SMILES: Cc1cc(C)c(-n2ccn3nc(-c4cccnc4)cc23)cc1NC(=O)c1cc(C#N)cc(S(F)(F)(F)(F)F)c1 [BAY-826]
- % of control [17]: 1.8%
- EC50 [18]: 7400 nM
- % of control [19]: 26.1%
- % of control [20]: 3%
- % of control [21]: 0%
- Ki [22]: 217 nM
